Values joined by “and” are separate entries in the source; they are usually repeats but may differ in a detail not shown here. Equal values may be shown once.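 Five compound concentrations were applied to cells in 96-well plates for 48 hours; endpoints were derived by simple linear interpolation of the resulting dose-response curve. GI50 = concentration required for 50% inhibition of growth. At the TGI there is no net growth.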

What all share (assay): DTP human tumour cell line panel, 48 h
In assay [1] the test system is BT-549 breast.
Assay [2] concerns DU-145 prostate.
For assay [3], the system named is HS 578T breast.
In assay [4] the test system is MCF7 breast.
The test system of assay [5] is MDA-MB-435.
Assay [6] deals with NCI/ADR-RES ovarian.

Turning to `COCCOC(=O)CCn1cc(F)c(=O)[nH]c1=O`, the GI50 in assay [1] is 16.2 µg/mL; in assay [2], 5.57 µg/mL; in assay [3], more than 150 µg/mL; in assay [4] it was 1.13 µg/mL; in assay [5], 5.67 µg/mL; in assay [6], 46.4 µg/mL. Moreover, the TGI in assay [1], in assay [2], in assay [3], in assay [4], in assay [5] and in assay [6] was more than 150 µg/mL each time.
For `N#CC(C#N)=C/C=C/c1cccc([N+](=O)[O-])c1`, the GI50 in assay [2] is 1.05 µM; in assay [3], 0.325 µM; in assay [4], 0.482 µM; in assay [5] it was 0.426 µM; in assay [6] it was 0.652 µM. Besides, the TGI in assay [2] amounted to 12.8 µM; in assay [3] it was 2.75 µM; in assay [4], 9.55 µM; in assay [5], 2.53 µM; in assay [6] it was 5.04 µM.
On to `Fc1cc(Nc2ccc3c(OCCCN4CCOCC4)cccc3n2)ccc1Cl`, for which the GI50 is 5.16 µM in assay [1]; 3.62 µM in assay [2]; 2.19 µM in assay [3]; 2.05 µM in assay [5]; 3.09 µM in assay [6]. In addition, the TGI in assay [1] worked out at 18.7 µM; in assay [2] it was 13.1 µM; in assay [3], 6 µM; in assay [5], 4.83 µM; in assay [6] it was 11.2 µM.
Turning to `CN(C)c1ccc(/C=N/Nc2ccc(-c3nc4ccccc4[nH]3)cc2)cc1`, the GI50 in assay [1] is 12.4 µM; in assay [2], 37.8 µM; in assay [3], 5.61 µM; in assay [4], 8.44 µM; in assay [5], 8.25 µM; in assay [6], 10.7 µM. Also, the TGI is 35.5 µM in assay [1]; more than 50 µM in assay [2]; 23.6 µM in assay [3]; 35.6 µM in assay [4]; more than 50 µM in assay [5]; 32 µM in assay [6].
In the case of `NC(=O)c1ccc(NC(=O)c2oc3ccccc3c2-c2cnn(-c3ccccc3)c2)cc1`, the GI50 in assay [1] was 3.51 µM; in assay [3] it was 4.56 µM; in assay [4], more than 100 µM; in assay [5] it was more than 100 µM. For the same compound, the TGI in assay [1], in assay [3], in assay [4] and in assay [5] was more than 100 µM in each case.
As for `NC(=O)c1ccc(-c2c3ccccc3cc3c2ccc2ccccc23)cc1`, the GI50 is 4.4 µM in assay [2]; 2 µM in assay [3]; 1.88 µM in assay [4]; 0.382 µM in assay [5]; 1.65 µM in assay [6]. Also, the TGI was 26.2 µM in assay [2]; 7.08 µM in assay [3]; 11.6 µM in assay [4]; 3.51 µM in assay [5]; 18.1 µM in assay [6].
Consider `C/C(=N\n1c(N)c(C#N)c(-c2ccc(Cl)cc2)c(C#N)c1=O)c1cccnc1`, for which the GI50 in assay [2], in assay [3], in assay [4], in assay [5] and in assay [6] was more than 100 µM each time. Besides, the TGI in assay [2], in assay [3], in assay [4], in assay [5] and in assay [6] was more than 100 µM in each case.
As to `C[C@H]1CC(=O)[C@@]2(O)C#C/C=C\C#C[C@@H]3Nc4c(cc(O)c5c4C(=O)c4ccccc4C5=O)[C@]24O[C@]314`, the GI50 in assay [2] was 0.0025 µM; in assay [3], 0.292 µM; in assay [4], 0.0025 µM; in assay [5], 0.0196 µM. Moreover, the total growth inhibition concentration (TGI) is 8.35 µM and 1.35 µM in assay [3]; 0.247 µM and 0.895 µM in assay [4]; 0.219 µM and 0.262 µM in assay [5]; 0.44 µM in assay [6].
Take `ClCc1ccc(Cn2cnc3ncnc(Cl)c32)cc1`: the GI50 in assay [1] was 3.75 µM; in assay [3] it was 1.74 µM; in assay [4] it was 1.35 µM; in assay [5] it was 5.82 µM; in assay [6], 1.81 µM. In addition, the TGI in assay [1] turned out to be 16.9 µM; in assay [3] it was 4.3 µM; in assay [4], 2.94 µM; in assay [5], 19.2 µM; in assay [6], 4.68 µM.
Consider `Cc1cc(C#Cc2ccccc2)ccc1-n1c(/C=C/c2ccc(O)cc2)nc2ccccc2c1=O`, for which the GI50 in assay [2] was 4.87 µM; in assay [3] it was 2.48 µM; in assay [4] it was 2.72 µM; in assay [5], 2.82 µM; in assay [6], 3.09 µM. The concentration for total growth inhibition (TGI) in assay [2] was more than 100 µM; in assay [3], 49.5 µM; in assay [4], 11 µM; in assay [5] it was 22.8 µM; in assay [6], 42 µM.
As for `CCCCN=C(OC1C=CCCC1)SC` (stereo not given), the TGI in assay [1], in assay [2], in assay [4], in assay [5] and in assay [6] was more than 100 µM each time.

In general, GI50 refers to the concentration that inhibits growth by half. As usually defined, the TGI is the concentration giving total growth inhibition. A lower TGI goes with more potent growth arrest.

The values above are taken from PubChem BioAssay (NCI).
